The source made the active and inactive calls. No cut-off for these calls is given here.

Experiment [1] is described as follows: Displacement of [3H]prazosin from adrenergic alpha1 receptor at 10 uM relative to control.
The nature of experiment [2]: Displacement of [3H]RX821002 from adrenergic alpha2 receptor at 10 uM relative to control.
For experiment [3], the target named is Beta-1 adrenergic receptor (Homo sapiens) (UniProt P08588). The experiment is described as follows: Displacement of [3H](-)-CGP12177 from human adrenergic beta1 receptor at 10 uM relative to control.
Beta-1 adrenergic receptor (Homo sapiens), sequence (P08588 whole entry, looked up): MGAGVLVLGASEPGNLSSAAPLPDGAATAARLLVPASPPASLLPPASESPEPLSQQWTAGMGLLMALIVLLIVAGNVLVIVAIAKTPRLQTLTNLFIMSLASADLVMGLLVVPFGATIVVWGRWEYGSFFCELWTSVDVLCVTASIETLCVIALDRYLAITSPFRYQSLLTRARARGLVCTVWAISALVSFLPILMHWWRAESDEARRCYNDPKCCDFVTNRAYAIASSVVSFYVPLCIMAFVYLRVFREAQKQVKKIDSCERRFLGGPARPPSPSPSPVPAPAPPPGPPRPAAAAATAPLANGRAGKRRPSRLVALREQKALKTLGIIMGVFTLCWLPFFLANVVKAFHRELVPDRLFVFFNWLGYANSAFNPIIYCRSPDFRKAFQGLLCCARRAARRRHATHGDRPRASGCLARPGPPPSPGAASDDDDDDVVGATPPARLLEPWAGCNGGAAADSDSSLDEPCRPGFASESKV
In experiment [4] the target is Beta-2 adrenergic receptor (Homo sapiens) (UniProt P07550). Nature of the experiment: Displacement of [3H](-)-CGP12177 from human adrenergic beta2 receptor at 10 uM relative to control.
Beta-2 adrenergic receptor (Homo sapiens), sequence (P07550 whole entry, looked up): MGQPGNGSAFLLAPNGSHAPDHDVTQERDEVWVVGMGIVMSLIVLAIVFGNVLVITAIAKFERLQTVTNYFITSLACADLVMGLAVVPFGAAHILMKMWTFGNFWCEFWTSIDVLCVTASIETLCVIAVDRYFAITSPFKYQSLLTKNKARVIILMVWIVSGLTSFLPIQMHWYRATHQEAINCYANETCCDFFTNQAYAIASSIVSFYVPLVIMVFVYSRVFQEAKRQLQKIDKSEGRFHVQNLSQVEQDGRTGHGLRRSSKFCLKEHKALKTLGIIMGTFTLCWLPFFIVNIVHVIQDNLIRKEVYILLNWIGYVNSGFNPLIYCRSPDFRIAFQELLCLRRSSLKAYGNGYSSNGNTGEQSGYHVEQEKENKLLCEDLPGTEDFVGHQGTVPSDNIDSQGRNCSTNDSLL
Experiment [5] concerns the target D(1A) dopamine receptor (Homo sapiens) (UniProt P21728). The experiment is described as follows: Displacement of [3H]SCH23390 from human dopamine D1 receptor at 10 uM relative to control.
In experiment [6] the target is D(2) dopamine receptor (Homo sapiens) (UniProt P14416). The experiment is described as follows: Displacement of [3H]methyl-spiperone from human dopamine D2s receptor at 10 uM relative to control.
D(2) dopamine receptor (Homo sapiens), sequence (P14416 whole entry): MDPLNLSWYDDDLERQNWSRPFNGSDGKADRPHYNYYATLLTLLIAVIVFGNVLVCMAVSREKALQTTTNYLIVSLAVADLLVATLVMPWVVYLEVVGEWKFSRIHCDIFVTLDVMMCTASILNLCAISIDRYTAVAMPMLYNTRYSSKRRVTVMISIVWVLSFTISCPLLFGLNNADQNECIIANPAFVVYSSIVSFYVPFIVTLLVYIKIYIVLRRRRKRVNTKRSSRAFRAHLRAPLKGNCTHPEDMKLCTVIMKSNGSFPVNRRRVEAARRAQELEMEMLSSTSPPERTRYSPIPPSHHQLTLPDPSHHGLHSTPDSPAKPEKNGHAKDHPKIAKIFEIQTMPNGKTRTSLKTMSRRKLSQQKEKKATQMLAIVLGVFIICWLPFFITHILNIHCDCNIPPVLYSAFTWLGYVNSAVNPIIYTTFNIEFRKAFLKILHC
The target of experiment [7] is Melatonin receptor type 1A (Homo sapiens) (UniProt P48039). Nature of the experiment: Displacement of [125I]2-iodomelatonin from human MT1 receptor at 10 uM relative to control.
Melatonin receptor type 1A (Homo sapiens), sequence (P48039 whole entry): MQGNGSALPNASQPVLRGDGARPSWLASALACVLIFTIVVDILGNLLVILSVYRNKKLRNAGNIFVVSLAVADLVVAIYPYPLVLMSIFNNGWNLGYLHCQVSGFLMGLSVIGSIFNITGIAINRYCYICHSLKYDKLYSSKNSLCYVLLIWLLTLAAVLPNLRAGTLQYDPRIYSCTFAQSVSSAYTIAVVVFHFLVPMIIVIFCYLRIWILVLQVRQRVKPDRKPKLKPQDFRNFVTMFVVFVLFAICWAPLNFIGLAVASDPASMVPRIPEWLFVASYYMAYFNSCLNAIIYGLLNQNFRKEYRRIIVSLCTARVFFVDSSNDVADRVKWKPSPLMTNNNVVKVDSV
The target in experiment [8] is T1, 5-hydroxytryptamine receptor 1A (Homo sapiens) (UniProt P08908).
T1 sequence (whole entry): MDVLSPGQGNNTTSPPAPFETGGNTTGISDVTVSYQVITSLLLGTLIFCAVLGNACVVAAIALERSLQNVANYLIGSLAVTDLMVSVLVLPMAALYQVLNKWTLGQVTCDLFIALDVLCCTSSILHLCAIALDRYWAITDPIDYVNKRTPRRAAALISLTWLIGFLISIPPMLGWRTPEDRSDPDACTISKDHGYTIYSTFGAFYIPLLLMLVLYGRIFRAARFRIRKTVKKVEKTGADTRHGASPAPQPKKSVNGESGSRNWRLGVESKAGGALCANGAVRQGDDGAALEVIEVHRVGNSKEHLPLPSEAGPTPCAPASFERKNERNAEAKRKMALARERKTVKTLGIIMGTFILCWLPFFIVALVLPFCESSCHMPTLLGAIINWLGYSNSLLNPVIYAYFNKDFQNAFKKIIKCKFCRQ
The experiment is described as follows: Displacement of [3H]8-OH-DPAT from human 5HT1A receptor at 10 uM relative to control.

Experiment [9] deals with 5-hydroxytryptamine receptor 1B (Homo sapiens) (UniProt P28222). The experiment is described as follows: Displacement of [125I]CYP from human 5HT1B receptor at 10 uM relative to control.
5-hydroxytryptamine receptor 1B (Homo sapiens), sequence (P28222 whole entry): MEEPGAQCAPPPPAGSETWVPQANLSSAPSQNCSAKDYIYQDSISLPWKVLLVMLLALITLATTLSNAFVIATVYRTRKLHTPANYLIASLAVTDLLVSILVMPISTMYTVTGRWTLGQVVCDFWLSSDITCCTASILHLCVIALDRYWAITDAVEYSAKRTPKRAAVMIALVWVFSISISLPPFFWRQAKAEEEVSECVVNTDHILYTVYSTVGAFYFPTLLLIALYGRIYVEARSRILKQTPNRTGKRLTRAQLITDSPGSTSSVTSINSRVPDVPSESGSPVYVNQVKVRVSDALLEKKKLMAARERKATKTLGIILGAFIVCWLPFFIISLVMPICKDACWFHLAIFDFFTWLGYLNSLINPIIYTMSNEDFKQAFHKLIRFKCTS
Experiment [10] has as its target 5-hydroxytryptamine receptor 2A (Homo sapiens) (UniProt P28223). Nature of the experiment: Displacement of [3H]ketanserin from human 5HT2A receptor at 10 uM relative to control.
The target of experiment [11] is 5-hydroxytryptamine receptor 2B (Homo sapiens) (UniProt P41595). Nature of the experiment: Displacement of [125I](+/-)-DOI from human 5HT2B receptor at 10 uM relative to control.
5-hydroxytryptamine receptor 2B (Homo sapiens), sequence (P41595 whole entry): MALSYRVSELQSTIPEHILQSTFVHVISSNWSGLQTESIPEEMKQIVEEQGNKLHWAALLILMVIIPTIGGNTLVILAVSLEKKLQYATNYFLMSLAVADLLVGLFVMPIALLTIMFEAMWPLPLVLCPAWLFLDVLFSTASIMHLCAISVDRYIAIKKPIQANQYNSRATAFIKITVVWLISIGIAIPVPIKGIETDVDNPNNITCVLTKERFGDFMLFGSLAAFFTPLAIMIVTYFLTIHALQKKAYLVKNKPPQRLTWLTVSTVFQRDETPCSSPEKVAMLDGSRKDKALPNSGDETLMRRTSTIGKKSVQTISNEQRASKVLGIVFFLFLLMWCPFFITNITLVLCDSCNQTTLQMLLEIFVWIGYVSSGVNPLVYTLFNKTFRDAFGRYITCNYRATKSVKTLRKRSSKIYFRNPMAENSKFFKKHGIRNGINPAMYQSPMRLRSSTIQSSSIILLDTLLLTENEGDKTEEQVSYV
Experiment [12] addresses T2, 5-hydroxytryptamine receptor 3A (Homo sapiens) (UniProt P46098).
T2 sequence (whole entry): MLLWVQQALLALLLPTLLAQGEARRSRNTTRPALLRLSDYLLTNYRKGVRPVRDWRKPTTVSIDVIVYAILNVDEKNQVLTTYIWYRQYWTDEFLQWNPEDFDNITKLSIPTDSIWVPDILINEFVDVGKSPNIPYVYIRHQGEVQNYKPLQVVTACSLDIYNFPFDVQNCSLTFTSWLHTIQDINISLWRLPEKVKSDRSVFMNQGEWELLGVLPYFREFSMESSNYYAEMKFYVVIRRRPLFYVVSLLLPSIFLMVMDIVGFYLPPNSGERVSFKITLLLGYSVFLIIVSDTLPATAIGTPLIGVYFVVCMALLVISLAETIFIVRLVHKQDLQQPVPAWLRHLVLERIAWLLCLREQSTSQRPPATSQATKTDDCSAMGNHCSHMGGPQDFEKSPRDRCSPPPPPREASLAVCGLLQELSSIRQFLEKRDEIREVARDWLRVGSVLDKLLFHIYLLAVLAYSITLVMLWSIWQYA
The experiment is described as follows: Displacement of [3H]BRL43694 from human 5HT3 receptor at 10 uM relative to control.

Experiment [13] addresses 5-hydroxytryptamine receptor 5A (Homo sapiens) (UniProt P47898). Nature of the experiment: Displacement of [3H]LSD from human 5HT5A receptor at 10 uM relative to control.
Experiment [14] deals with 5-hydroxytryptamine receptor 6 (Homo sapiens) (UniProt P50406). The experiment is described as follows: Displacement of [3H]LSD from human 5HT6 receptor at 10 uM relative to control.
Experiment [15] has as its target 5-hydroxytryptamine receptor 7 (Homo sapiens) (UniProt P34969). Nature of the experiment: Displacement of [3H]LSD from human 5HT7 receptor at 10 uM relative to control.
The target in experiment [16] is Sodium-dependent noradrenaline transporter (Homo sapiens) (UniProt P23975). Nature of the experiment: Displacement of [3H]nisoxetine from human NE transporter at 10 uM relative to control.
Sodium-dependent noradrenaline transporter (Homo sapiens), sequence (P23975 whole entry): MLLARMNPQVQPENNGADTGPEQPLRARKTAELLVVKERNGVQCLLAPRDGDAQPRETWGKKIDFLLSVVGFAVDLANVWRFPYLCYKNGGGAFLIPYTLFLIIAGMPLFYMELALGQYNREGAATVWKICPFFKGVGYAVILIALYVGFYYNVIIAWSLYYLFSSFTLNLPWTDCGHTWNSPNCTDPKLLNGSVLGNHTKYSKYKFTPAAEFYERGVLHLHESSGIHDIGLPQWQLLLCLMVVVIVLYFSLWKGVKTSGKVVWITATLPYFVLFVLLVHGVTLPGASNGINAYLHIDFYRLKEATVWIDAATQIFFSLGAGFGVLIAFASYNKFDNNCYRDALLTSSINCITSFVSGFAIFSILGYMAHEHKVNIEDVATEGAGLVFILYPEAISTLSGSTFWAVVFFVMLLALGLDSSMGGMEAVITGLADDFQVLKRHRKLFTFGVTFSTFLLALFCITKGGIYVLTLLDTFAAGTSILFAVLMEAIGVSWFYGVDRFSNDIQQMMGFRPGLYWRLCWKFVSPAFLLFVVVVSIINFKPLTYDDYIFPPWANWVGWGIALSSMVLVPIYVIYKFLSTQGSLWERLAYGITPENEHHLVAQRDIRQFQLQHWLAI
Experiment [17] addresses Sodium-dependent dopamine transporter (Homo sapiens) (UniProt Q01959). Nature of the experiment: Displacement of [3H]BTCP from human DA transporter at 10 uM relative to control.
Experiment [18] concerns the target Sodium-dependent serotonin transporter (Homo sapiens) (UniProt P31645). Nature of the experiment: Displacement of [3H]imipramine from human 5HT transporter at 10 uM relative to control.
Experiment [19] concerns P815B. Nature of the experiment: Antitumor activity against mouse P815B cells expressing TDO xenografted in immunized mouse assessed as tumor growth inhibition at 160 mg/kg/day, po administered with water. The format is functional, organism-based.
Experiment [20] deals with Indoleamine 2,3-dioxygenase 1 (Homo sapiens) (UniProt P14902). The experiment is described as follows: Inhibition of IDO at 10 uM.
Indoleamine 2,3-dioxygenase 1 (Homo sapiens), sequence (P14902 whole entry, looked up): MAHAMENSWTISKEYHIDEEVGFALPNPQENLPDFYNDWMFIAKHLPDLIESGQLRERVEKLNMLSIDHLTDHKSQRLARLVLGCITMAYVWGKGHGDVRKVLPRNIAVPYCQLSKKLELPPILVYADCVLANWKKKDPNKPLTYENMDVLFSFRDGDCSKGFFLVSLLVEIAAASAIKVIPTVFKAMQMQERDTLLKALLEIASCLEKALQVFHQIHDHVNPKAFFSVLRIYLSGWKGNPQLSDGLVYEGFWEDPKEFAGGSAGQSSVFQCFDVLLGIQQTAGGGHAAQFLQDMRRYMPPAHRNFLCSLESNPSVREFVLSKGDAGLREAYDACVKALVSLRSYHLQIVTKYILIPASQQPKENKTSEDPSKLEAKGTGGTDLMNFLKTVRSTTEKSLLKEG

Sodium-dependent serotonin transporter (Homo sapiens), sequence (P31645 whole entry, looked up): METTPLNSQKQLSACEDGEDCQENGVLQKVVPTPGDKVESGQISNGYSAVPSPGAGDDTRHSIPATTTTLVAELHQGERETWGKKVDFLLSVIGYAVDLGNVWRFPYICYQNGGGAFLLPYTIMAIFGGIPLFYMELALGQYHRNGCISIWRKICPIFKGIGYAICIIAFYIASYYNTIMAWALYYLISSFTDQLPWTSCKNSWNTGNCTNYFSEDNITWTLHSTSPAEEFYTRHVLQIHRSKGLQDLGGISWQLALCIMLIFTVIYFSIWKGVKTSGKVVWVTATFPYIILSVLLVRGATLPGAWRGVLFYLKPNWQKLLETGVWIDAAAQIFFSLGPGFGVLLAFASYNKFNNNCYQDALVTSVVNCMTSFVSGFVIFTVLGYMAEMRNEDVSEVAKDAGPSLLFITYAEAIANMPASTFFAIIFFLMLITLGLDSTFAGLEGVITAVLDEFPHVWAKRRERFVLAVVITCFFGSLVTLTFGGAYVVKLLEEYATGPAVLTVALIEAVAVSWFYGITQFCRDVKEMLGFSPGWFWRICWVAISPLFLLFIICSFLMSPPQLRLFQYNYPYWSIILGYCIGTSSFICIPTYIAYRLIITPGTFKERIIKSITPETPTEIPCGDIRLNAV
5-hydroxytryptamine receptor 7 (Homo sapiens), sequence (P34969 whole entry): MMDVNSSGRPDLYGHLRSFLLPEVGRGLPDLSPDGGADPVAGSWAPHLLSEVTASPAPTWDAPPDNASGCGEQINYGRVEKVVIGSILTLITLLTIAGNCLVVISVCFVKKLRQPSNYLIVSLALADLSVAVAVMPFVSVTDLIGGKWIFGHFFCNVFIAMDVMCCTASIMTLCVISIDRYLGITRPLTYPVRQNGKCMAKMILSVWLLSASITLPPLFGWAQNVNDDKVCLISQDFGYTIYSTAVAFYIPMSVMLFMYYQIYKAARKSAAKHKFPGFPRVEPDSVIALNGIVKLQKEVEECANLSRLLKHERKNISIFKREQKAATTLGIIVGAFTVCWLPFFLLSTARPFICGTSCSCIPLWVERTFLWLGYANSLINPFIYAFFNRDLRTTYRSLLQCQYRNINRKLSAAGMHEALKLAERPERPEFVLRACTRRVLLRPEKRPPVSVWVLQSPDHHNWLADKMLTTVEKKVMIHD

For `Fc1ccc2c(/C=C/c3nnn[nH]3)c[nH]c2c1`, the inhibition in [1] is below 10%; in experiment [2], below 10%; in experiment [3], 14%; in [4], below 10%; in experiment [5] it was below 10%; in experiment [6], below 10%. Further, the inhibition in [7], in experiment [8], in experiment [9], in [10], in experiment [11] and in [12] was below 10% throughout. Also, the inhibition in experiment [13] is below 10%; in [14] it was below 10%; in experiment [15] it was below 10%; in [16] it was below 10%; in experiment [17], below 10%; in [18] it was 26%. Moreover, the inhibition in experiment [20] is below 10%. Further, the result in experiment [19] was Active.

For the origin of these results see ChEMBL document CHEMBL1811872, “Tryptophan 2,3-dioxygenase (TDO) inhibitors. 3-(2-(pyridyl)ethenyl)indoles as potential anticancer immunomodulators” (J Med Chem, 2011).
